Source: ChEMBL document CHEMBL3885861, “Open TG-GATES”

Organism: Rattus norvegicus
Test: Open TG-GATES - Regimen: Single
Assay type: toxicity, organism-based, Sprague-Dawley
Design: regimen Single, gender Male, age 6 weeks
Conditions: in vivo, po, route gavage; for APTT / Bas / Eos / Fbg / Hb / Ht / Lym / MCH / MCHC / MCV / Mono / Neu / Plat / RBC / Ret / WBC: tissue Blood; for KIDNEY_L / KIDNEY_R / KIDNEY_TOTAL: tissue Kidney; for LIVER: tissue Liver; for ALP / ALT / AST / BUN / CRE / Ca / Cl / DBIL / GLC / IP / K / LDH / Na / PL / RALB / TBIL / TC / TG / TP / gamma-GTP: tissue Plasma
[1] = 1000 mg/kg, 3 h, dose level Middle
[2] = 1000 mg/kg, 6 h, dose level Middle
[3] = 1000 mg/kg, 9 h, dose level Middle
[4] = 1000 mg/kg, 24 h, dose level Middle
[5] = 2000 mg/kg, 3 h, dose level High
[6] = 2000 mg/kg, 6 h, dose level High
[7] = 2000 mg/kg, 9 h, dose level High
[8] = 2000 mg/kg, 24 h, dose level High

CC(=O)Oc1ccccc1C(=O)O [ASPIRIN]
TERMINAL_BW [1]: 217.1 g
APTT [1]: 19 s
Bas [1]: 0%
Eos [1]: 1%
Fbg [1]: 217.4 mg/dL
Hb [1]: 13.6 g/dL
Ht [1]: 37.9%
Lym [1]: 69.4%
MCH [1]: 21.9 pg
MCHC [1]: 35.9%
MCV [1]: 60.8 fL
Mono [1]: 2.8%
Neu [1]: 25.4%
Plat [1]: 121 x10_4/uL
RBC [1]: 624.8 x10_4/ul
Ret [1]: 8%
WBC [1]: 72.1 x10_2/uL
KIDNEY_L [1]: 0.9 g
KIDNEY_R [1]: 1 g
KIDNEY_TOTAL [1]: 1.9 g
LIVER [1]: 8.8 g
ALP [1]: 835 IU/L
ALT [1]: 44.4 IU/L
AST [1]: 79 IU/L
BUN [1]: 15.8 mg/dL
CRE [1]: 0.4 mg/dL
Ca [1]: 8.7 mg/dL
Cl [1]: 104 meq/L
DBIL [1]: 0.06 mg/dL
GLC [1]: 203.8 mg/dL
IP [1]: 8.3 mg/dL
K [1]: 3.4 meq/L
LDH [1]: 205.8 IU/L
Na [1]: 141 meq/L
PL [1]: 88.8 mg/dL
RALB [1]: 3.4 g/dL
TBIL [1]: 0.1 mg/dL
TC [1]: 54.6 mg/dL
TG [1]: 26.2 mg/dL
TP [1]: 5.5 g/dL
gamma-GTP [1]: 1 IU/L
TERMINAL_BW [2]: 218.6 g
APTT [2]: 19.9 s
Bas [2]: 0%
Eos [2]: 0.6%
Fbg [2]: 233.4 mg/dL
Hb [2]: 13.7 g/dL
Ht [2]: 37.9%
Lym [2]: 66%
MCH [2]: 21.5 pg
MCHC [2]: 36.2%
MCV [2]: 59.5 fL
Mono [2]: 3.4%
Neu [2]: 29%
Plat [2]: 132.5 x10_4/uL
RBC [2]: 637.2 x10_4/ul
Ret [2]: 7.9%
WBC [2]: 97.1 x10_2/uL
KIDNEY_L [2]: 1 g
KIDNEY_R [2]: 0.9 g
KIDNEY_TOTAL [2]: 1.9 g
LIVER [2]: 8.5 g
ALP [2]: 820.8 IU/L
ALT [2]: 35.4 IU/L
AST [2]: 78.2 IU/L
BUN [2]: 14.8 mg/dL
CRE [2]: 0.4 mg/dL
Ca [2]: 8.3 mg/dL
Cl [2]: 104.2 meq/L
DBIL [2]: 0.056 mg/dL
GLC [2]: 209.4 mg/dL
IP [2]: 8.1 mg/dL
K [2]: 3.3 meq/L
LDH [2]: 236.6 IU/L
Na [2]: 140.2 meq/L
PL [2]: 108 mg/dL
RALB [2]: 3.6 g/dL
TBIL [2]: 0.098 mg/dL
TC [2]: 68.6 mg/dL
TG [2]: 16.8 mg/dL
TP [2]: 5.7 g/dL
gamma-GTP [2]: 1 IU/L
TERMINAL_BW [3]: 217.1 g
APTT [3]: 21.6 s
Bas [3]: 0%
Eos [3]: 1%
Fbg [3]: 232.4 mg/dL
Hb [3]: 13.7 g/dL
Ht [3]: 38.1%
Lym [3]: 69.4%
MCH [3]: 21.4 pg
MCHC [3]: 35.8%
MCV [3]: 59.7 fL
Mono [3]: 2.4%
Neu [3]: 27%
Plat [3]: 128.3 x10_4/uL
RBC [3]: 638.6 x10_4/ul
Ret [3]: 7.8%
WBC [3]: 93.3 x10_2/uL
KIDNEY_L [3]: 1 g
KIDNEY_R [3]: 0.9 g
KIDNEY_TOTAL [3]: 1.9 g
LIVER [3]: 7.5 g
ALP [3]: 903.8 IU/L
ALT [3]: 33.2 IU/L
AST [3]: 79.8 IU/L
BUN [3]: 13.2 mg/dL
CRE [3]: 0.4 mg/dL
Ca [3]: 8.5 mg/dL
Cl [3]: 106.4 meq/L
DBIL [3]: 0.05 mg/dL
GLC [3]: 202.4 mg/dL
IP [3]: 7.7 mg/dL
K [3]: 3.2 meq/L
LDH [3]: 227.2 IU/L
Na [3]: 140.6 meq/L
PL [3]: 102.4 mg/dL
RALB [3]: 3.5 g/dL
TBIL [3]: 0.098 mg/dL
TC [3]: 62.8 mg/dL
TG [3]: 9.2 mg/dL
TP [3]: 5.5 g/dL
gamma-GTP [3]: 1.2 IU/L
TERMINAL_BW [4]: 217 g
APTT [4]: 29.4 s
Bas [4]: 0.4%
Eos [4]: 1%
Fbg [4]: 225 mg/dL
Hb [4]: 14.4 g/dL
Ht [4]: 39.3%
Lym [4]: 72%
MCH [4]: 22.1 pg
MCHC [4]: 36.6%
MCV [4]: 60.4 fL
Mono [4]: 2.2%
Neu [4]: 24.2%
Plat [4]: 131.6 x10_4/uL
RBC [4]: 650.8 x10_4/ul
Ret [4]: 7.1%
WBC [4]: 89.6 x10_2/uL
KIDNEY_L [4]: 0.9 g
KIDNEY_R [4]: 0.9 g
KIDNEY_TOTAL [4]: 1.9 g
LIVER [4]: 8.1 g
ALP [4]: 933.8 IU/L
ALT [4]: 38 IU/L
AST [4]: 110 IU/L
BUN [4]: 14.8 mg/dL
CRE [4]: 0.4 mg/dL
Ca [4]: 8.7 mg/dL
Cl [4]: 105.6 meq/L
DBIL [4]: 0.052 mg/dL
GLC [4]: 214 mg/dL
IP [4]: 7.3 mg/dL
K [4]: 3.5 meq/L
LDH [4]: 227.6 IU/L
Na [4]: 140.8 meq/L
PL [4]: 75.4 mg/dL
RALB [4]: 3.5 g/dL
TBIL [4]: 0.1 mg/dL
TC [4]: 40.2 mg/dL
TG [4]: 23.4 mg/dL
TP [4]: 5.7 g/dL
gamma-GTP [4]: 1.6 IU/L
TERMINAL_BW [5]: 220 g
APTT [5]: 19.5 s
Bas [5]: 0%
Eos [5]: 1.2%
Fbg [5]: 224.8 mg/dL
Hb [5]: 13.7 g/dL
Ht [5]: 37.7%
Lym [5]: 62.2%
MCH [5]: 21.9 pg
MCHC [5]: 36.3%
MCV [5]: 60.4 fL
Mono [5]: 4.6%
Neu [5]: 30.4%
Plat [5]: 124.1 x10_4/uL
RBC [5]: 625.8 x10_4/ul
Ret [5]: 8.1%
WBC [5]: 71.4 x10_2/uL
KIDNEY_L [5]: 1 g
KIDNEY_R [5]: 1 g
KIDNEY_TOTAL [5]: 1.9 g
LIVER [5]: 8.9 g
ALP [5]: 991.6 IU/L
ALT [5]: 41.4 IU/L
AST [5]: 86.6 IU/L
BUN [5]: 15.6 mg/dL
CRE [5]: 0.4 mg/dL
Ca [5]: 8.3 mg/dL
Cl [5]: 103.6 meq/L
DBIL [5]: 0.06 mg/dL
GLC [5]: 200 mg/dL
IP [5]: 9 mg/dL
K [5]: 3.4 meq/L
LDH [5]: 248.4 IU/L
Na [5]: 141 meq/L
PL [5]: 96.4 mg/dL
RALB [5]: 3.5 g/dL
TBIL [5]: 0.1 mg/dL
TC [5]: 62 mg/dL
TG [5]: 24 mg/dL
TP [5]: 5.8 g/dL
gamma-GTP [5]: 1.4 IU/L
TERMINAL_BW [6]: 217 g
APTT [6]: 20.8 s
Bas [6]: 0%
Eos [6]: 0.8%
Fbg [6]: 225.6 mg/dL
Hb [6]: 13.7 g/dL
Ht [6]: 37.8%
Lym [6]: 63.8%
MCH [6]: 22.1 pg
MCHC [6]: 36.3%
MCV [6]: 60.8 fL
Mono [6]: 3%
Neu [6]: 31.6%
Plat [6]: 118.3 x10_4/uL
RBC [6]: 622 x10_4/ul
Ret [6]: 8.3%
WBC [6]: 91.9 x10_2/uL
KIDNEY_L [6]: 1 g
KIDNEY_R [6]: 1 g
KIDNEY_TOTAL [6]: 2 g
LIVER [6]: 8.3 g
ALP [6]: 843.8 IU/L
ALT [6]: 35.4 IU/L
AST [6]: 79 IU/L
BUN [6]: 17.8 mg/dL
CRE [6]: 0.4 mg/dL
Ca [6]: 8.1 mg/dL
Cl [6]: 104.2 meq/L
DBIL [6]: 0.056 mg/dL
GLC [6]: 221.4 mg/dL
IP [6]: 7.9 mg/dL
K [6]: 3.2 meq/L
LDH [6]: 233.4 IU/L
Na [6]: 140.4 meq/L
PL [6]: 103.4 mg/dL
RALB [6]: 3.5 g/dL
TBIL [6]: 0.1 mg/dL
TC [6]: 67.8 mg/dL
TG [6]: 12.2 mg/dL
TP [6]: 5.7 g/dL
gamma-GTP [6]: 1.2 IU/L
TERMINAL_BW [7]: 217.3 g
APTT [7]: 22.1 s
Bas [7]: 0%
Eos [7]: 0.8%
Fbg [7]: 224.8 mg/dL
Hb [7]: 13.9 g/dL
Ht [7]: 38.3%
Lym [7]: 65%
MCH [7]: 21.8 pg
MCHC [7]: 36.3%
MCV [7]: 60.1 fL
Mono [7]: 2.2%
Neu [7]: 31.2%
Plat [7]: 127.8 x10_4/uL
RBC [7]: 636.2 x10_4/ul
Ret [7]: 8%
WBC [7]: 88.7 x10_2/uL
KIDNEY_L [7]: 0.9 g
KIDNEY_R [7]: 0.9 g
KIDNEY_TOTAL [7]: 1.8 g
LIVER [7]: 7.9 g
ALP [7]: 712.8 IU/L
ALT [7]: 34.4 IU/L
AST [7]: 77.2 IU/L
BUN [7]: 15 mg/dL
CRE [7]: 0.4 mg/dL
Ca [7]: 8 mg/dL
Cl [7]: 105.2 meq/L
DBIL [7]: 0.048 mg/dL
GLC [7]: 211.4 mg/dL
IP [7]: 7.6 mg/dL
K [7]: 3.3 meq/L
LDH [7]: 212.4 IU/L
Na [7]: 139.4 meq/L
PL [7]: 97.2 mg/dL
RALB [7]: 3.4 g/dL
TBIL [7]: 0.092 mg/dL
TC [7]: 59.4 mg/dL
TG [7]: 11 mg/dL
TP [7]: 5.6 g/dL
gamma-GTP [7]: 0.8 IU/L
TERMINAL_BW [8]: 210.7 g
APTT [8]: 32.6 s
Bas [8]: 0%
Eos [8]: 0.8%
Fbg [8]: 223 mg/dL
Hb [8]: 14.7 g/dL
Ht [8]: 39.8%
Lym [8]: 69.2%
MCH [8]: 22 pg
MCHC [8]: 37%
MCV [8]: 59.4 fL
Mono [8]: 2.6%
Neu [8]: 26.4%
Plat [8]: 125.8 x10_4/uL
RBC [8]: 669.4 x10_4/ul
Ret [8]: 7.5%
WBC [8]: 56.2 x10_2/uL
KIDNEY_L [8]: 0.9 g
KIDNEY_R [8]: 0.9 g
KIDNEY_TOTAL [8]: 1.9 g
LIVER [8]: 7 g
ALP [8]: 912.4 IU/L
ALT [8]: 30 IU/L
AST [8]: 138.6 IU/L
BUN [8]: 14.6 mg/dL
CRE [8]: 0.4 mg/dL
Ca [8]: 7 mg/dL
Cl [8]: 104 meq/L
DBIL [8]: 0.048 mg/dL
GLC [8]: 230.6 mg/dL
IP [8]: 6.3 mg/dL
K [8]: 3.1 meq/L
LDH [8]: 232.4 IU/L
Na [8]: 138.4 meq/L
PL [8]: 81.6 mg/dL
RALB [8]: 3.5 g/dL
TBIL [8]: 0.092 mg/dL
TC [8]: 44.4 mg/dL
TG [8]: 24.8 mg/dL
TP [8]: 5.7 g/dL
gamma-GTP [8]: 1.4 IU/L
